Measured values from paper PMC10594211, “Characterization of pyridylpiperazine-based efflux pump inhibitors for Acinetobacter baumannii” (JAC-Antimicrobial Resistance, 2023).

Legend:
AcrB (AcrAB-TolC) = molecular target: T1, AcrB (AcrAB-TolC) (Escherichia coli, UniProt P31224); assay: antibiotic boosting in E. coli cells; type: cell-based
T1 construct: full-length RND pump in E. coli cells; strain only in supplement; with Multidrug efflux pump subunit AcrA; Outer membrane protein TolC

AdeJ = molecular target: T2, AdeJ (Acinetobacter baumannii, UniProt Q2FD94); assay: antibiotic MIC and checkerboard in A. baumannii cells; type: cell-based; settings: 40 µM EPI
T2 construct: native chromosomal AdeJ in A. baumannii cells (other RND pumps present); isogenic point mutants by allelic exchange; with Membrane fusion protein AdeI; Outer membrane efflux protein AdeK

AdeIJK (AdeJ) = molecular target: T3, AdeIJK (AdeJ) (Acinetobacter baumannii, UniProt Q2FD94); assay: antibiotic MIC in E. coli ΔacrAB expressing adeIJK (REMA); type: cell-based, Escherichia coli; settings: 40 µM EPI; fusidic acid, novobiocin, erythromycin, SDS
T3 construct: adeIJK operon under acrA promoter in chromosome of E. coli ΔacrAB; tripartite RND pump; with Membrane fusion protein AdeI; Outer membrane efflux protein AdeK

AdeFGH (AdeG) = molecular target: T4, AdeFGH (AdeG) (Acinetobacter baumannii, UniProt A0A090C131); assay: antibiotic MIC in E. coli ΔacrAB expressing adeFGH (REMA); type: cell-based, Escherichia coli ΔacrAB; settings: 40 µM EPI; chloramphenicol, oxacillin, SDS
T4 construct: adeFGH operon under acrA promoter in chromosome of E. coli ΔacrAB; tripartite RND pump; with Membrane fusion protein AdeF; Outer membrane efflux protein AdeH
T4 sequence (A0A090C131 entry or part of it): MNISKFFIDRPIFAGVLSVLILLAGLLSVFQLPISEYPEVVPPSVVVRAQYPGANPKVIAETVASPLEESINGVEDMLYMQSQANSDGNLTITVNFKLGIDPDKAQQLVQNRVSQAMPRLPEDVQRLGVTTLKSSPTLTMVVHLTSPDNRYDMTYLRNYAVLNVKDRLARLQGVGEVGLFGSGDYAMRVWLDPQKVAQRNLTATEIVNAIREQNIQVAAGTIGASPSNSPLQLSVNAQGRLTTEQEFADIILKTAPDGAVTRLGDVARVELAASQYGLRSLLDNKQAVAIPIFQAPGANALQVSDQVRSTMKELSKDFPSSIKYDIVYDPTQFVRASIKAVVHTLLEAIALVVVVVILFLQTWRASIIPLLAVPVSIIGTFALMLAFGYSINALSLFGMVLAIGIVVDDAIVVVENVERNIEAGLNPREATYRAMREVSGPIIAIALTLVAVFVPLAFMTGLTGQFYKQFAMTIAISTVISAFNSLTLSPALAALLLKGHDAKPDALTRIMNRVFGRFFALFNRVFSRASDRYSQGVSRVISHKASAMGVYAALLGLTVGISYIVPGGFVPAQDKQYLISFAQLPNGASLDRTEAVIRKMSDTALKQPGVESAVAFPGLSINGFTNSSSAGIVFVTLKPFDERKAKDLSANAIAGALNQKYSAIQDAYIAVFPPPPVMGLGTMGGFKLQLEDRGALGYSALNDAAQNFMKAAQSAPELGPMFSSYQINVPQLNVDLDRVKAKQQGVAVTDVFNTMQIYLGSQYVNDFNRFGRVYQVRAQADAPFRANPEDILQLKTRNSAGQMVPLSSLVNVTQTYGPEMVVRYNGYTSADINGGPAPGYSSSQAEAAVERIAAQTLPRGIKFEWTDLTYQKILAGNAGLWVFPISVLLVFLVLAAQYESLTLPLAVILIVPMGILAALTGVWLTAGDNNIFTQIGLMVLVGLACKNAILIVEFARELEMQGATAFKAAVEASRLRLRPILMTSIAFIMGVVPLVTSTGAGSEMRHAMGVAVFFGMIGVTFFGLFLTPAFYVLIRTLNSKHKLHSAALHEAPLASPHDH
T4 sequence (A0A0N9Q906 entry or part of it, further chain): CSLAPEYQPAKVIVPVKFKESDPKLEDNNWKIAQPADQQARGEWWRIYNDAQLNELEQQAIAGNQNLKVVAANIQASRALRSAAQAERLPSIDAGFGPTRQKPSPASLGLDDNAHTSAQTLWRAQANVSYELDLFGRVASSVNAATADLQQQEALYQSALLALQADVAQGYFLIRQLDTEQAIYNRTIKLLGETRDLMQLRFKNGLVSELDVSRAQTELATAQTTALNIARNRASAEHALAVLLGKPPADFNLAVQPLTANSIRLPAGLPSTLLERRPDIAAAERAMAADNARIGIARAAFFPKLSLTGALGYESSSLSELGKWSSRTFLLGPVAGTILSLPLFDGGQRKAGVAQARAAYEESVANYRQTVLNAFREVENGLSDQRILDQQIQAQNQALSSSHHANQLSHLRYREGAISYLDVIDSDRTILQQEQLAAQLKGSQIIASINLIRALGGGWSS
T4 sequence (A0A0N9QP12 entry or part of it, further chain): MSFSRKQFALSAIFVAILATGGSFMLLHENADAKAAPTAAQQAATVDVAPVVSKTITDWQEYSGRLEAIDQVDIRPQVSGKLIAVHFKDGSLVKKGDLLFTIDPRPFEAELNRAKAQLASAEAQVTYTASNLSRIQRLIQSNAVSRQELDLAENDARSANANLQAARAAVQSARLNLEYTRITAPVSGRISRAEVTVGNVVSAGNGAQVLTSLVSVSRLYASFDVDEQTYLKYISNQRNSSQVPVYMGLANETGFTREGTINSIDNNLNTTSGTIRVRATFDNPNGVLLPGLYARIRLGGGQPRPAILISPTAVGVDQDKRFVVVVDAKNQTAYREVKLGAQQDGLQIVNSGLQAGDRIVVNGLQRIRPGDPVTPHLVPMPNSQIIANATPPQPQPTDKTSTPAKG

T1 sequence (P0AE06 25-397): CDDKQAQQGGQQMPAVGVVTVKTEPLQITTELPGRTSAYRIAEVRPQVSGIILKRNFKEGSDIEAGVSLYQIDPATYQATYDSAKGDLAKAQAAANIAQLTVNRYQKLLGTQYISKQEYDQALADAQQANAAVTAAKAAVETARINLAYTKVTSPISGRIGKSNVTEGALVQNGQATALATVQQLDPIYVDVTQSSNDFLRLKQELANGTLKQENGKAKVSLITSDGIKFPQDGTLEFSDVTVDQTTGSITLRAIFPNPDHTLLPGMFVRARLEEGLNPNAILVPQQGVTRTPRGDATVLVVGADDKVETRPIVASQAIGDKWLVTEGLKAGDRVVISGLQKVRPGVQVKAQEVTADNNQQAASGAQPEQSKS
T1 sequence (P02930 23-493, further chain): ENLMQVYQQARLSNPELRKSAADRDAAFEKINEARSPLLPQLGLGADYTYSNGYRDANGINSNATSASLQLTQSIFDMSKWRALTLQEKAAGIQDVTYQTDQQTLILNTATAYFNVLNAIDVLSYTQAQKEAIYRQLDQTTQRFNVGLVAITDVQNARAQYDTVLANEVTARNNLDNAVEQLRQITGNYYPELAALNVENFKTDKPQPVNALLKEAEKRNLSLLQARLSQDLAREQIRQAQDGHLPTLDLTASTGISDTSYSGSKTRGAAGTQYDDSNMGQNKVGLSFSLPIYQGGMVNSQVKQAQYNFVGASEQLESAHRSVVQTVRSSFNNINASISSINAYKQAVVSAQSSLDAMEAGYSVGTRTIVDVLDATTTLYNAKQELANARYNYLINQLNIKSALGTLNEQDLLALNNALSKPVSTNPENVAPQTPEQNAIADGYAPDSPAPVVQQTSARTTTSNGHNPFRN
T1 sequence (P31224 whole entry): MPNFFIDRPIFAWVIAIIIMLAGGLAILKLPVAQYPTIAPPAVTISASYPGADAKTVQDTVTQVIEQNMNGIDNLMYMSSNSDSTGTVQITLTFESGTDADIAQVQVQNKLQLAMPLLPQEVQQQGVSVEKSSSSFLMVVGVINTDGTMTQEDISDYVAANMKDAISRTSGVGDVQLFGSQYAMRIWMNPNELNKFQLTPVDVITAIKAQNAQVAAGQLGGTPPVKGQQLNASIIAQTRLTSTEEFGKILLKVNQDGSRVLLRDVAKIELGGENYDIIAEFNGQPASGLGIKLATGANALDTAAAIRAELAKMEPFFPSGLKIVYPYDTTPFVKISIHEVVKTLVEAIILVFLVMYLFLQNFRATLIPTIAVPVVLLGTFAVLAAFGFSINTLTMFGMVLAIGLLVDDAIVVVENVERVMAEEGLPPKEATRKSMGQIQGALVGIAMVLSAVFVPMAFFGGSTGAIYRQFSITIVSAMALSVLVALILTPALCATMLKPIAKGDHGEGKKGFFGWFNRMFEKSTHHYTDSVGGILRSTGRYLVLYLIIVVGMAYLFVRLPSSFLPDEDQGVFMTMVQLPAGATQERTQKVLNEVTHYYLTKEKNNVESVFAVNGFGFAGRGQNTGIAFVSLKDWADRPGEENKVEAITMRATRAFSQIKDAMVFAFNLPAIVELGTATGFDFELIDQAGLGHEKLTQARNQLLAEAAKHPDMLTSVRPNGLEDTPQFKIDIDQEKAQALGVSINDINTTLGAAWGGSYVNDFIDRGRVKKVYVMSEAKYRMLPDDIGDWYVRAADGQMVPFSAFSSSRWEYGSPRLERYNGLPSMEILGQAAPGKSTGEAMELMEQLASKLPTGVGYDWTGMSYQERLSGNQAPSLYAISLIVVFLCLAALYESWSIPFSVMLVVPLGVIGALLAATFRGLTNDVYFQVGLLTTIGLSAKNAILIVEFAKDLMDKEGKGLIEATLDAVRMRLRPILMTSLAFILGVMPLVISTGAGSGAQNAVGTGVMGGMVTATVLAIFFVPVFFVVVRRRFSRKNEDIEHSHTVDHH

Compound: NCc1cccc(-c2ccc3nc(N4CCNCC4)c(Cl)cc3c2)c1 [compound 1, BDM91531]
- EC90 (AcrB (AcrAB-TolC)): 240 nM
- MIC (AdeJ): antibiotic boosting in A. baumannii by BDM91531, BDM91892 or PAβN is through AdeIJK inhibition
- MIC (AdeIJK (AdeJ)): both BDM91531 and BDM91892 can inhibit the activity of AdeFGH and AdeIJK
- MIC (AdeFGH (AdeG)): both BDM91531 and BDM91892 can inhibit the activity of AdeFGH and AdeIJK

Compound: NCCc1ccccc1C#Cc1cnc(N2CCNCC2)c(Cl)c1 [compound 11, BDM91892]
- EC90 (AcrB (AcrAB-TolC)): 1500 nM
- MIC (AdeJ): antibiotic boosting in A. baumannii by BDM91531, BDM91892 or PAβN is through AdeIJK inhibition
- MIC (AdeIJK (AdeJ)): both BDM91531 and BDM91892 can inhibit the activity of AdeFGH and AdeIJK
- MIC (AdeFGH (AdeG)): both BDM91531 and BDM91892 can inhibit the activity of AdeFGH and AdeIJK
